According to paper PMC5781335, “Identification of danthron as an isoform-specific inhibitor of HEME OXYGENASE-1/cytochrome P450 reductase interaction with anti-tumor activity” (Journal of Biomedical Science, 2018):
One block for each molecule: values may come before it.

Experiments:
heme oxygenase-1 (HO-1) [1] = biological target: T1, heme oxygenase-1 (HO-1) (Homo sapiens, UniProt P09601); assay: cell-based BRET inhibition of HO-1/CPR interaction in HEK293T
T1 construct: gene HMOX1; Luc-HO-1 (N-terminal luciferase fusion); with cytochrome P450 reductase (CPR-GFP)
T1 sequence (P09601 1-288): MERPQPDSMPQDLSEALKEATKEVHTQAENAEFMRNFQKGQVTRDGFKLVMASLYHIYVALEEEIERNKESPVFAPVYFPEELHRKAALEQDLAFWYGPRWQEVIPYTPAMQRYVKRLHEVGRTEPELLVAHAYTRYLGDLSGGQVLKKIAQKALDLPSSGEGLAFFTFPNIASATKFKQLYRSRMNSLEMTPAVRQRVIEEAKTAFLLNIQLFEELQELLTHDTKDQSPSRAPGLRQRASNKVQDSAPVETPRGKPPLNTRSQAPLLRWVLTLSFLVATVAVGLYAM
T1 sequence (P16435 2-677 partner): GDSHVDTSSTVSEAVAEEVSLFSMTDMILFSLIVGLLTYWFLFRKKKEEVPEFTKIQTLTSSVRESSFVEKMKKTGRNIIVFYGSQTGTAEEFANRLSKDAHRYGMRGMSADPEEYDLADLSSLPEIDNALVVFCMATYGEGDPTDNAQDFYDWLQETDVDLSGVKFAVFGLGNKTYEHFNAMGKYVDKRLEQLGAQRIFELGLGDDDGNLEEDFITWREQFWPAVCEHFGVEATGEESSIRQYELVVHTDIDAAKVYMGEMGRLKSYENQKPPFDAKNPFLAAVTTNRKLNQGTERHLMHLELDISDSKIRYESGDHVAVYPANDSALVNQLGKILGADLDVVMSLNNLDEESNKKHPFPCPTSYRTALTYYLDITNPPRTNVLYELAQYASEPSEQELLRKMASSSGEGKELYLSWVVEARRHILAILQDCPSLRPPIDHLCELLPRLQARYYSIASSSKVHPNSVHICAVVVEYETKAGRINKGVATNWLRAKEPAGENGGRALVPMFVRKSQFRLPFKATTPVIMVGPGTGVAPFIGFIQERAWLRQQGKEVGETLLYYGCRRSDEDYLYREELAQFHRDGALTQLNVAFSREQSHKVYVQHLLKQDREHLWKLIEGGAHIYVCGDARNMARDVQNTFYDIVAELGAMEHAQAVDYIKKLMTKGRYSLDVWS

heme oxygenase-1 (HO-1) [2] = biological target: T2, heme oxygenase-1 (HO-1) (Homo sapiens, UniProt P09601); assay: pull-down of purified His-HO-1 by resin-bound CPR-GFP ([…] danthron); IC50 from cell-based BRET
T2 construct: gene HMOX1; truncated human HO-1 (aa 13–260), C-terminal 6 x His-tag (pull-down); Luc-HO-1 (BRET); with cytochrome P450 reductase (CPR-GFP)
T2 sequence (P09601 13-260): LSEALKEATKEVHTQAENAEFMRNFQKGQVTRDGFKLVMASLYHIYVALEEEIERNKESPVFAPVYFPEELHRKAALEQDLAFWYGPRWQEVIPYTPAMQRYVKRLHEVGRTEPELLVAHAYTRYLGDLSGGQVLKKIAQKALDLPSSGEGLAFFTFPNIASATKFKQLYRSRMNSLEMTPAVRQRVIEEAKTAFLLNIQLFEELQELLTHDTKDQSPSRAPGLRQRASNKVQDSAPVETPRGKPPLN
T2 sequence (P16435 2-677 partner): T1 sequence (P16435 2-677 partner)

[3] = biological target: T3, CPR construct with its carboxyl-terminus fused to GFP (CPR-GFP) (human, UniProt P16435 1-677); assay: pull-down; CPR-GFP immunoprecipitated from HEK293T lysate on anti-GFP-affinity Sepharose, washed, incubated with 1 ug His-HO-1 or His-HO-2 in 100 ul buffer A (20 mM Tris-HCl pH 7.4, 100 mM NaCl) at room temperature for 1 h, without or with 10 uM danthron or anthrarufin; blot with anti-His and anti-GFP; details: both partners purified
T3 construct: human cytochrome P450 reductase (CPR) cDNA subcloned with GFP2 cDNA into a pCMV-2 vector; BRET acceptor; bait on anti-GFP Sepharose in the pull-down; also called cytochrome P450 reductase; source: HEK293T, transfected; not shown: GFP2, C-terminal, kept
T3 sequence (looked up): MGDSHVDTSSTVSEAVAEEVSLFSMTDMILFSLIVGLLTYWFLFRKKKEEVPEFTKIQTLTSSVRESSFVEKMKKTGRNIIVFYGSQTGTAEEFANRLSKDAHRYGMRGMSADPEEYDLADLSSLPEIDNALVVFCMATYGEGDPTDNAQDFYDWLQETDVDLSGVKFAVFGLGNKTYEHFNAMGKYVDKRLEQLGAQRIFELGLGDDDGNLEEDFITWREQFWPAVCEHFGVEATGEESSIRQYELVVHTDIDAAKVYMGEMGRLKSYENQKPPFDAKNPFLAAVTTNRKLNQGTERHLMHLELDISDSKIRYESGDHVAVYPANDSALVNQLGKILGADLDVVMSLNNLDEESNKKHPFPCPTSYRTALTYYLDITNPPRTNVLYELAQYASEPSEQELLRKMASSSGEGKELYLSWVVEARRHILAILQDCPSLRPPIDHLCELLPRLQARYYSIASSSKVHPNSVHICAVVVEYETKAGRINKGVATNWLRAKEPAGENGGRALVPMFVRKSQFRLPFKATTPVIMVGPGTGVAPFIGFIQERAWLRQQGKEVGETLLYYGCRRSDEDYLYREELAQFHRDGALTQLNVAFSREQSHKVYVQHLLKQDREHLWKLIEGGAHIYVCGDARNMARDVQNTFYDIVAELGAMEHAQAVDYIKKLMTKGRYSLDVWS

Molecule: O=C1c2cccc(O)c2C(=O)c2c(O)ccc(O)c21 [1,4,5-trihydroxyanthra-9,10-quinone]
IC50 (heme oxygenase-1 (HO-1) [1]): 10.4 µM

Molecule: O=C1c2ccccc2C(=O)c2c(O)cccc21 [1-hydroxyanthra-9,10-quinone]
IC50 (heme oxygenase-1 (HO-1) [1]): 10.1 µM

The next lines start with the values.

IC50 (heme oxygenase-1 (HO-1) [2]): 2090 nM
Molecule: O=C1c2cccc(O)c2C(=O)c2c(O)cccc21 [danthron]

binding result [3]: binds
B1: recombinant soluble His-tagged HO-2 (His-HO-2), human HO-2 construct (aa 33-288) (domain or fragment, UniProt P30519 33-288, looked up)
chain: LSELLKEGTKEAHDRAENTQFVKDFLKGNIKKELFKLATTALYFTYSALEEEMERNKDHPAFAPLYFPMELHRKEALTKDMEYFFGENWEEQVQCPKAAQKYVERIHYIGQNEPELLVAHAYTRYMGDLSGGQVLKKVAQRALKLPSTGEGTQFYLFENVDNAQQFKQLYRARMNALDLNMKTKERIVEEANKAFEYNMQIFNELDQAGSTLARETLEDGFPVHDGKGDMRKCPFYAAEQDKGALEGSSCPFRTAM
notes: human heme oxygenase-2, construct aa 33-288, in pQE-60 vector; not shown: His6, C-terminal, kept
